In patent publication US20090280069A1, “PROGUANIL TO TREAT SKIN/MUCOSAL DISEASES” (Tolmar, Inc., priority 2008, published 2009):

Tests used:
[1] = system: C. minutissimum ATCC 23348; test: time kill assay, C. minutissimum; type: cell-based, Corynebacterium minutissimum
Protocol: (§1) Corynebacterium minutissimum is the causative agent of erythrasma, a superficial infection of the skin characterized by slowly spreading pruritic, reddish-brown macular patches. A microbiological study used a time kill assay with C. minutissimum ATCC 23348 as an indicator of the antibacterial activity of proguanil. […] A broth only control as well as a solvent 10% DGME control were added to the vials so that the total test volume was 15 ml. One hundred μl of a freshly grown suspension of the C. minutissimum was then added at time zero so that the initial bacterial suspension was between 10^7 and 10^8 CFU/ml. All test and control suspensions were then incubated under aerobic conditions at 35° C. Aliquots of the test and control suspensions were removed at 24, 48, and 72 hours and plated onto tryptic soy agar in triplicate using a spiral plater. These plates were incubated aerobically at 35° C. for 1-3 days. Surviving colonies were then counted and the CFU/ml of test and control suspensions calculated and graphed. The effects of proguanil on the C. minutissimum were observed.

S. pyogenes ATCC 19615 = test: time kill assay, S. pyogenes (Group A); type: cell-based, Streptococcus pyogenes
Protocol: as §1, with “Streptococcus pyogenes (Group A) infections can lead to many skin disease syndromes. Impetigo, ecthyma, erysipelas, and cellulitis are all diseases caused by an” for “Corynebacterium minutissimum is the causative agent of erythrasma, a superficial”, “S. pyogenes.” for “the skin characterized by slowly spreading pruritic, reddish-brown macular patches.”, “S. pyogenes” for “C. minutissimum”, “19615” for “23348”

[2] = system: Candida albicans ATCC 10231; test: time kill assay, C. albicans; type: cell-based
Protocol: A time kill assay was used to test the effects of varying concentrations of proguanil on a culture of Candida albicans ATCC 10231. An inoculum of C. albicans was prepared and inoculated in vials containing Muller Hinton II broth and proguanil concentrations of 1280, 640, 480, 320, 160 μg/ml. A growth control using phosphate buffered saline A (PBSA) plus Mueller Hinton II broth was used in place of the drug because it has no antimicrobial effect. DGME was the solvent used to dissolve the proguanil. Accordingly, 10% DGME was used as the solvent control. These inoculated broth solutions were then allowed to incubate for a period of 72 hours. Samples were taken at 0, 4, 24, 48 and 72 hours and spiral plated so the CFU/ml could be calculated.

[3] = system: Propionibacterium acnes ATCC 6919; test: time kill assay, P. acnes; type: cell-based
Protocol: A microbiological study used a time kill assay with Propionibacterium acnes ATCC 6919 as an indicator of the antibacterial activity of proguanil. […] A broth only control as well as a solvent 10% DGME control were added to the vials so that the total test volume was 15 ml. One hundred μl of a freshly grown suspension of P. acnes 6919 was then added at time zero so that the initial bacterial suspension was between 10^7 and 10^8 CFU/ml. All test and control suspensions were then incubated under anaerobic conditions at 35° C. Aliquots of the test and control suspensions were removed at 24, 48, 72, and 96 hours and plated onto tryptic soy agar in triplicate using a spiral plater. These plates were incubated anaerobically at 35° C. for 3-5 days. Surviving P. acnes colonies were then counted and the CFU/ml of test and control suspensions calculated and graphed.

[4] = system: Streptococcus equi subsp. equi ATCC 33398; test: time kill assay, S. equi (Group C); type: cell-based
Protocol: Streptococcus equi (Group C) infections can lead to skin diseases such as erysipelas and cellulitis. A time kill assay was used to test the effects of varying concentrations of proguanil on a culture of Streptococcus equi subsp. equi ATCC 33398. An inoculum of S. equi was prepared and inoculated in vials containing Mueller Hinton II broth and proguanil concentrations of 160, 80, 16, 8, and 1.6 μg/ml. A growth control using phosphate buffered saline A (PBSA) plus Mueller Hinton II broth was used in place of the drug because it has no antimicrobial effect. DGME was the solvent used to dissolve the proguanil, accordingly, 10% DGME was used as the solvent control. These inoculated broth solutions were then allowed to incubate for a period of 72 hours. Samples were taken at 0, 4, 24, 48 and 72 hours and spiral plated so the CFU/ml could be calculated. In the experiments, the effects of proguanil on the S. equi were observed.

[5] = system: Streptococcus agalactiae ATCC 49446; test: time kill assay, S. agalactiae (Group B); type: cell-based
Protocol: Streptococcus agalactiae (Group B) infections can lead to skin diseases such as erysipelas and cellulitis. A time kill assay was used to test the effects of varying concentrations of proguanil on a culture of Streptococcus agalactiae ATCC 49446. An inoculum of S. agalactiae was prepared and inoculated in vials containing Muller Hinton II broth and proguanil concentrations of 160, 80, 16, 8, and 1.6 μg/ml. A growth control using phosphate buffered saline A (PBSA) plus Mueller Hinton II broth was used in place of the drug because it has no antimicrobial effect. DGME was the solvent used to dissolve the proguanil, accordingly, 10% DGME was used as the solvent control. These inoculated broth solutions were then allowed to incubate for a period of 72 hours. Samples were taken at 0, 4, 24, 48 and 72 hours and spiral plated so the CFU/ml could be calculated. The effects of proguanil on the S. agalactiae were observed.

[6] = all other concentrations (16, 8, 1.6 μg/ml)

CC(C)NC(=N)NC(=N)Nc1ccc(Cl)cc1 [Proguanil, N-(4-Chlorophenyl)-N′-(1-methylethyl)imidodicarbonimidic diamide]
effect on CFU/ml ([1]; 160 and 80 μg/ml, at 4 hours, 160 greater effect than 80): reduced the CFU/ml | CFU/ml ([1]; 160 and 80 μg/ml, by the 24 hour time point): 0 CFU/ml | Relative Sensitivity (Compared to Other Strains Tested) ([1]; Corynebacterium minutissimum (ATCC 23348)): Very Sensitive | Approximate Inhibitory Level ([1]; Corynebacterium minutissimum (ATCC 23348), level at which partial or total inhibition of growth is observed): 80 µg/mL | effect compared to controls ([1]; all other test concentrations (1.6, 8, 16 μg/ml)): little effect | effect on the bacteria (S. pyogenes ATCC 19615; 1.6 μg/ml): roughly followed the trend of the Mueller Hinton II broth control | effect on the bacteria (S. pyogenes ATCC 19615; 8 μg/ml and 16 μg/ml, compared to Mueller Hinton II control): may be slightly inhibitory | effect on the bacteria (S. pyogenes ATCC 19615; 80 μg/ml, lesser effect than 160 and 100 μg/ml): good growth inhibition | effect on the bacteria (S. pyogenes ATCC 19615; 100 μg/ml, over 72 hours, single assay): substantial effect | CFU/ml (S. pyogenes ATCC 19615; 160 μg/ml, T=24, 48 and 72 hours): 0 CFU/ml | effect on the bacteria (S. pyogenes ATCC 19615; 160 μg/ml, lowest CFU/ml at all time points): greatest effect | Relative Sensitivity (Compared to Other Strains Tested) (S. pyogenes ATCC 19615; Streptococcus pyrogenes (Group A) ATCC 19615): Sensitive | Approximate Inhibitory Level (S. pyogenes ATCC 19615; Streptococcus pyrogenes (Group A) ATCC 19615, level at which partial or total inhibition of growth is observed): 80 to 160 µg/mL | CFU/ml ([2]; 160 μg/ml, static from 24 to 72 hours): 80 CFU/ml | effect on C. albicans ([2]; 320 μg/ml, 24 hour time point and later): completely killed | CFU counts ([2]; 1280 μg/ml, all time points 0-72 hours): 0 CFU | effect on the yeast ([2]; 640 and 480 μg/ml, 4-72 hour time points): killing all of the yeast | Relative Sensitivity (Compared to Other Strains Tested) ([2]; Candida albicans): Moderately | Approximate Inhibitory Level ([2]; Candida albicans, level at which partial or total inhibition of growth is observed): 320 µg/mL | bacteria eliminated ([3]; 160 μg/ml, by 24 hours): 97-100% | Relative Sensitivity (Compared to Other Strains Tested) ([3]; Propionibacterium acnes ATCC 6919): Sensitive | Approximate Inhibitory Level ([3]; Propionibacterium acnes ATCC 6919, level at which partial or total inhibition of growth is observed): 80 to 160 µg/mL | killing of P. acnes ([3]; between 0.16 and 16 μg/ml): not very effective | effect on CFU/ml ([4]; 80 μg/ml, time zero to 72 hours): only a slight increase in CFU/ml | effect on the bacteria ([4]; 160 μg/ml): strong inhibition and killing | CFU/ml ([4]; 160 μg/ml, T=48 and 72 hours): 0 CFU/ml | Relative Sensitivity (Compared to Other Strains Tested) ([4]; Streptococcus equi subspecies equi (Group C) ATCC 33398): Sensitive | Approximate Inhibitory Level ([4]; Streptococcus equi subspecies equi (Group C) ATCC 33398, level at which partial or total inhibition of growth is observed): 80 to 160 µg/mL | effect on CFU/ml [4, 6]: very similar and near the CFU/ml of the Mueller Hinton II broth control | effect on CFU/ml ([5]; 80 μg/ml): slight effect | effect on the bacteria ([5]; 160 μg/ml): dramatic inhibition | CFU/ml ([5]; 160 μg/ml, T=48 and 72 hours): 0 CFU/ml | Relative Sensitivity (Compared to Other Strains Tested) ([5]; Streptococcus agalactiae (Group B) ATCC 49446): Moderately | Approximate Inhibitory Level ([5]; Streptococcus agalactiae (Group B) ATCC 49446, level at which partial or total inhibition of growth is observed): 160 µg/mL | effect on CFU/ml [5, 6]: very similar and near the CFU/ml of the Mueller Hinton II broth control
